Source: patent US11198692B2, “Dihydro-pyrrolo-pyridine derivatives” (Pfizer Inc., priority 2017, dated 2021)

Target: T1, Human M4 receptors (Homo sapiens, UniProt P08173)
T1 construct: expressed in transfected cells
T1 sequence (P08173 1-479): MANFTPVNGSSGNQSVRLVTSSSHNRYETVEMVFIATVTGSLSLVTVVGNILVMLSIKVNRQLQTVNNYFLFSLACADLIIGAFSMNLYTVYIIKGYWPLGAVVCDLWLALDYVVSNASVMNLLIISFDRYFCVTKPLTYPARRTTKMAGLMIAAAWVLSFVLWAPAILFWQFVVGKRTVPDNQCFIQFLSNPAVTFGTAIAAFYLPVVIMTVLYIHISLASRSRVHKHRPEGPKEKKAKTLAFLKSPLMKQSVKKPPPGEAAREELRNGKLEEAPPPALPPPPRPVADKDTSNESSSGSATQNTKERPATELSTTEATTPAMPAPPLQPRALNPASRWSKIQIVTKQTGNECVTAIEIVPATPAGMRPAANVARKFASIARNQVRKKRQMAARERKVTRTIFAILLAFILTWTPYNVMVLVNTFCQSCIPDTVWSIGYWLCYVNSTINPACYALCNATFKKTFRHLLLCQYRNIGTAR
Assay: M4 PAM cAMP assay (GloSensor)
Type: cell-based
Conditions: HEK293 GloSensor cells expressing hM4, with EC20 acetylcholine and isoproterenol, geometric mean of 2-4 determinations unless footnoted (b: >=5, c: single); for EC50 Mean Asymptote Maximum (%) / Emax: Emax = maximum asymptote of fitted dose response curve; for Emax: read-out: EC50 Mean Asymptote Maximum (%)
Procedure: The M4 cAMP assay was designed to determine the potency and efficacy of muscarinic positive allosteric modulators (PAMs). Human M4 receptors were stably expressed in Human embryonic kidney (HEK293) cells expressed with the Promega GloSensor™ cAMP technology.
HEK293 GloSensor cells expressing hM4 cells were cultured in growth media containing DMEM with 10% FBS, 1% Penicillin/Streptomycin, 500 μg/mL G418, 200 μg/mL Hygomycin B, and 1% Glutamax. When cells had grown to 80%-90% confluency, cells were harvested and seeded at a density of 25,000 cells/40 μL well, in a 384 white walled plates (Becton Dickinson 356661). Plates were incubated at 37 degrees C. and 5% CO2 for use after 24 hours.
Compound Preparation for Activator Screen:
Test compounds were initially prepared as 100% DMSO stock solutions, then transferred and serially diluted in 384-well compound plates (Matrix #4325). Each compound was tested at 10 concentrations in duplicate per experiment. Compound plates are spotted with 0.2 μL/well activator at 400 times the final assay concentration. Positive and negative controls for the compound alone activator response was 10 μM acetylcholine (Sigma # A2661) and DMSO, respectively. EC20 of acetylcholine was also used to define PAM activities.
Promega GloSensor™reagent (Promega # E1291) had previously been aliquotted. For each experiment, a stock solution of GloSensor™ was thawed out and equilibration medium was prepared with 88% CO2-independent media (Invitrogen #18045088), 10% fetal bovine serum and 2% GloSensor™ cAMP Reagent stock solution. Stock solution was mixed. Culture media in cell plates was discarded, then replaced with 40 μL/well pre-warmed equilibration media, then incubated in the dark at room temperature for 2 hours. During the incubation, stimulation media containing agonist and EC20 acetylcholine was prepared. CO2-independent media containing 50 […] Isoproterenol representing an EC80 of b-adrenergic receptor activity (Sigma #16504, 400 times final concentration) and EC20 acetylcholine in 1.25% DMSO was added to all columns of the compound plate, with the exception of column 12 to allow for EC0 control. […] Compounds are now 5 times the final assay concentration. The plate was mixed using a plate agitator. At the end of the 2 hour GloSensor™ incubation, add 10 μL of the CO2-independent media containing agonist, EC20 acetylcholine and isoproterenol to the cell plate. Cell plate was then incubated for 10 minutes at room temperature, and then read using an EnVision plate reader (Perkin Elmer).
Data was exported from the EnVision plate reader. The percent effect for each well was determined using the mean values for the positive and negative controls on each plate for each read, specifically 100*(compound−negative control)/(positive control−negative control). Dose response curves were fitted to the compound percent effect data using a 4-parameter logistic fit model. Data was reported as EC50 and Emax, with the Emax as the maximum asymptote of the fitted dose response curve.

Question: Which “EC50 Mean Asymptote Maximum (%)” value does the source give for `CNc1nc(C)c(C)c2c1CN(C(=O)CC1CN(c3ccnc(C(F)(F)F)c3)C1)C2C` (single isomer, unassigned) [Example 43, 2-{1-[2-(trifluoromethyl)pyridin-4-yl]azetidin-3-yl}-1-[1,6,7-trimethyl-4-(methylamino)-1,3-dihydro-2H-pyrrolo[3,4-c]pyridin-2-yl]ethanone] here?
Answer: 152^c %

Question: And the EC50?
Answer: 3670 nM

Question: Which results are given for `CNc1nc(C)c(C)c2c1CN(C(=O)CC1CN(c3ccnc(C(F)(F)F)c3)C1)C2` [Example 34, 1-[6,7-dimethyl-4-(methylamino)-1,3-dihydro-2H-pyrrolo[3,4-c]pyridin-2-yl]-2-{1-[2-(trifluoromethyl)pyridin-4-yl]azetidin-3-yl}ethanone]?
Answer: Emax: 95.9%; EC50: 1.3 nM

Question: Which Emax does the source give for `Cc1nc(CN(C)C)c2c(c1C)CN(C(=O)CC1CN(c3cccnc3)C1)C2` [Example 14, 1-{4-[(dimethylamino)methyl]-6,7-dimethyl-1,3-dihydro-2H-pyrrolo[3,4-c]pyridin-2-yl}-2-[1-(pyridin-3-yl)azetidin-3-yl]ethanone] here?
Answer: 99.4%

Question: And the EC50?
Answer: 18.5 nM

Question: For `CNc1nc(C)c(C)c2c1CN(C(=O)CC1CN(c3ccnc(C)c3)C1)C2` [Example 35, 1-[6,7-dimethyl-4-(methylamino)-1,3-dihydro-2H-pyrrolo[3,4-c]pyridin-2-yl]-2-[1-(2-methylpyridin-4-yl)azetidin-3-yl]ethanone], which Emax is on record?
Answer: 97.7%

Question: And the EC50?
Answer: 13.6 nM

Question: For `Cc1nc(-c2cnn(C)c2)c2c(c1C)CN(C(=O)CC1CN(c3cccnc3)C1)C2` [Example 13, 1-[6,7-dimethyl-4-(1-methyl-1H-pyrazol-4-yl)-1,3-dihydro-2H-pyrrolo[3,4-c]pyridin-2-yl]-2-[1-(pyridin-3-yl)azetidin-3-yl]ethanone], which Emax is on record?
Answer: 87.5%

Question: What about the EC50 of the same molecule?
Answer: 20.6 nM

Question: Which results are given for `CNc1nc(C)c(C)c2c1CN(C(=O)C[C@@H]1C[C@H]1c1cncnc1)C2` (single isomer, unassigned) [Example 29, 1-[6,7-dimethyl-4-(methylamino)-1,3-dihydro-2H-pyrrolo[3,4-c]pyridin-2-yl]-2-[trans-2-(pyrimidin-5-yl)cyclopropyl]ethanone]?
Answer: Emax: 96.3%; EC50: 690 nM

Question: Which results are given for `CNc1nc(C)c(C)c2c1CN(C(=O)CC1CN(c3ccc(F)nc3)C1)C2` [Example 51, 1-[6,7-dimethyl-4-(methylamino)-1,3-dihydro-2H-pyrrolo[3,4-c]pyridin-2-yl]-2-[1-(6-fluoropyridin-3-yl)azetidin-3-yl]ethanone]?
Answer: Emax: 97.7%; EC50: 3.26 nM

Question: `CNc1nc(C)c(C)c2c1CN(C(=O)C[C@@H]1C[C@H]1c1cncnc1)C2` (single isomer, unassigned) [Example 30, 1-[6,7-dimethyl-4-(methylamino)-1,3-dihydro-2H-pyrrolo[3,4-c]pyridin-2-yl]-2-[trans-2-(pyrimidin-5-yl)cyclopropyl]ethanone] was tested. Which “EC50 Mean Asymptote Maximum (%)” value did it give?
Answer: 95.1%

Question: What about the EC50 of the same molecule?
Answer: 1.58 nM

Question: Which results are given for `COc1nc(C)c(C)c2c1CN(C(=O)CC1CN(c3cccnc3)C1)C2` [Example 53, 1-(4-methoxy-6,7-dimethyl-1,3-dihydro-2H-pyrrolo[3,4-c]pyridin-2-yl)-2-[1-(pyridin-3-yl)azetidin-3-yl]ethanone]?
Answer: Emax: 92.1%; EC50: 43.8 nM

Question: For `CNc1nc(C)c(C)c2c1CN(C(=O)C[C@@H]1C[C@H]1c1ccc(C)nc1)C2` (racemic) [Example 45, 1-[6,7-dimethyl-4-(methylamino)-1,3-dihydro-2H-pyrrolo[3,4-c]pyridin-2-yl]-2-[trans-2-(6-methylpyridin-3-yl)cyclopropyl]ethanone], which Emax is on record?
Answer: 105%

Question: What about the EC50 of the same molecule?
Answer: 3.56 nM

Question: Which results are given for `Cc1nc(N(C)C)c2c(c1C)CN(C(=O)CC1CN(c3cncnc3)C1)C2` [Example 20, 1-[4-(dimethylamino)-6,7-dimethyl-1,3-dihydro-2H-pyrrolo[3,4-c]pyridin-2-yl]-2-[1-(pyrimidin-5-yl)azetidin-3-yl]ethanone]?
Answer: Emax: 95.1%; EC50: 30.4 nM

Question: Which results are given for `CNc1nc(C)c(C)c2c1CN(C(=O)CCc1ccc(OC)cc1)C2` [Example 32, 1-[6,7-dimethyl-4-(methylamino)-1,3-dihydro-2H-pyrrolo[3,4-c]pyridin-2-yl]-3-(4-methoxyphenyl)propan-1-one]?
Answer: Emax: 119%; EC50: 24.7 nM

Question: How did the “EC50 Mean Asymptote Maximum (%)” value turn out when `CNc1nc(C)c(C)c2c1CN(C(=O)C[C@@H]1C[C@H]1c1ccc(F)nc1)C2` (single isomer, unassigned) [Example 15, 1-[6,7-dimethyl-4-(methylamino)-1,3-dihydro-2H-pyrrolo[3,4-c]pyridin-2-yl]-2-[trans-2-(6-fluoropyridin-3-yl)cyclopropyl]ethanone] was run?
Answer: 148%

Question: What about the EC50 of the same molecule?
Answer: 795 nM

Question: What does the source list for `CNc1nc(C)c(C)c2c1CN(C(=O)C1CC1)C2` [Example 58, cyclopropyl[6,7-dimethyl-4-(methylamino)-1,3-dihydro-2H-pyrrolo[3,4-c]pyridin-2-yl]methanone]?
Answer: Emax: 96.2%; EC50: 95.2 nM

Question: How did the Emax turn out when `CNc1nc(C)c(C)c2c1CN(C(=O)CC1CN(c3nncs3)C1)C2` [Example 37, 1-[6,7-dimethyl-4-(methylamino)-1,3-dihydro-2H-pyrrolo[3,4-c]pyridin-2-yl]-2-[1-(1,3,4-thiadiazol-2-yl)azetidin-3-yl]ethanone] was run?
Answer: 93.5%

Question: What about the EC50 of the same molecule?
Answer: 3.47 nM

Question: What does the source list for `COCc1nc(C)c(C)c2c1CN(C(=O)CC1CN(c3cccnc3)C1)C2` [Example 54, 1-[4-(methoxymethyl)-6,7-dimethyl-1,3-dihydro-2H-pyrrolo[3,4-c]pyridin-2-yl]-2-[1-(pyridin-3-yl)azetidin-3-yl]ethanone]?
Answer: Emax: 95.8%; EC50: 153 nM

Question: Which results are given for `CNc1nc(C)c(C)c2c1CN(C(=O)C[C@@H]1C[C@H]1c1ccc(F)cc1)C2` (single isomer, unassigned) [Example 41, 1-[6,7-dimethyl-4-(methylamino)-1,3-dihydro-2H-pyrrolo[3,4-c]pyridin-2-yl]-2-[trans-2-(4-fluorophenyl)cyclopropyl]ethanone]?
Answer: EC50 Mean Asymptote Maximum (%): 145^c %; EC50: 783 nM

Question: `Cc1nc(C(F)F)c2c(c1C)CN(C(=O)CC1CN(c3ccnc(C(F)F)c3)C1)C2` [Example 39, 1-[4-(difluoromethyl)-6,7-dimethyl-1,3-dihydro-2H-pyrrolo[3,4-c]pyridin-2-yl]-2-{1-[2-(difluoromethyl)pyridin-4-yl]azetidin-3-yl}ethanone] was tested. Which Emax did it give?
Answer: 101%

Question: What about the EC50 of the same molecule?
Answer: 32 nM

Question: Which results are given for `CNc1nc(C)c(C)c2c1CN(C(=O)c1cnn(C)c1)C2` [Example 48, [6,7-dimethyl-4-(methylamino)-1,3-dihydro-2H-pyrrolo[3,4-c]pyridin-2-yl](1-methyl-1H-pyrazol-4-yl)methanone]?
Answer: Emax: 96.8%; EC50: 8.46 nM

Question: How did the Emax turn out when `Cc1ncc2c(c1C)CN(C(=O)CC1CN(c3cccnc3)C1)C2` [Example 52, 1-(6,7-dimethyl-1,3-dihydro-2H-pyrrolo[3,4-c]pyridin-2-yl)-2-[1-(pyridin-3-yl)azetidin-3-yl]ethanone] was run?
Answer: 84.5%

Question: What about the EC50 of the same molecule?
Answer: 36.1 nM

Question: Which Emax does the source give for `CNc1nc(C)c(C)c2c1CN(C(=O)OC1CN(c3cccnc3)C1)C2` [Example 5, 1-(Pyridin-3-yl)azetidin-3-yl 6,7-dimethyl-4-(methylamino)-1,3-dihydro-2H-pyrrolo[3,4-c]pyridine-2-carboxylate] here?
Answer: 96.8%

Question: What about the EC50 of the same molecule?
Answer: 1.22 nM
